Values of other authors as cited in patent publication US9211341B2, “Method of manufacturing a pharmaceutical composition having chelating type complex micelles” (Original BioMedicals Co., Ltd, priority 2011, dated 2015).

For `NCCCNCCSP(=O)(O)O` [amifostine], the “blood half-life (βt1/2)” value (after injection) is given as 8.8 min, the “time at which the cytoprotective effect appears” value (after injection) is given as 5 to 10 min and the “time to reach steady state after distribution to tissues and dephosphorylation” value (after injection) is given as “about 10 minutes”. The “concentration in normal cells (kidney, lung, liver, skin, bone marrow, intestine, spleen) relative to cancer cells” value (following injection) was 10 times and the “plasma clearance, fraction cleared” value (within 6 minutes) was “approximately 90%”.
